Values joined by “and” are separate entries in the source; they are usually repeats but may differ in a detail not shown here. Identical values can stand only once.

In one assay the test system is A549. In words: In vitro antiproliferative activity, SRB assay, A549. It counts as cell-based, human. Conditions: for IC50: human lung adenocarcinoma, 72 h, SRB, mean ± SD. As to the method:
(§1) The A549 cell line was purchased from the European Collection of Authenticated Cell Cultures (ECACC, Salisbury, UK). The MCF-7, LoVo and LoVo/DX cell lines was purchased from American Type Culture Collection (ATCC, Manassas, VA, USA). All the cell lines are maintained in the Institute of Immunology and Experimental Therapy (IIET), Wroclaw, Poland.
(§2) Human lung adenocarcinoma cell line was cultured in a mixture of OptiMEM and RPMI 1640 (1:1) medium (IIET, Wroclaw, Poland), supplemented with 5% fetal bovine serum HyClone (GE Healthcare, USA) and 2 mM L-glutamine (Sigma-Aldrich, Germany). Human breast adenocarcinoma cell line was cultured in a mixture of Eagle medium (IIET, Wroclaw, Poland), supplemented with 10% fetal bovine serum, 2 mM L-glutamine, 8 μg/mL insulin and 1% amino acids (Sigma-Aldrich, Germany). Human colon adenocarcinoma cell lines were cultured in a mixture of OptiMEM and RPMI 1640 (1:1) medium (IIET, Wroclaw, Poland), supplemented with 5% fetal bovine serum HyClone (GE Healthcare, USA), 2 mM L-glutamine, 1 mM sodium pyruvate (Sigma-Aldrich, Germany) and 10 μg/100 mL doxorubicin (Accord) for LoVo/DX. Murine embryonic fibroblast cells were cultured in Dulbecco medium (Gibco), supplemented with 10% fetal bovine serum (GE Healthcare, USA) and 2 mM L-glutamine (Sigma-Aldrich, Germany). All culture media contained antibiotics: 100 U/mL penicillin (Polfa-Tarchomin, Poland) and 0.1 mg/mL streptomycin (Sigma Aldrich, Germany). All cell lines were cultured during entire experiment in humid atmosphere at 37 °C and 5% CO2.
(§3) All cell lines were exposed to each tested agent at different concentrations in the range 100–0.001 μg/mL for 72 h. The cells were also exposed to the reference drug cisplatin (Teva Pharmaceuticals, Poland) and doxorubicin (Accord Healthcare Limited, UK). Additionally, all cell lines were exposed to DMSO (solvent used for tested compounds) (POCh, Poland) at concentrations corresponding to those present in dilutions of tested agents. After 72 h sulforhodamine B assay (SRB) was performed.
(§4) After 72 h of incubation with the tested compounds, the cells were fixed in situ by gently adding of 50 μL per well of cold 50% trichloroacetic acid TCA (POCh, Poland) and were incubated at room temperature for one hour. Then the wells were washed four times with water and air dried. Next, 50 μL of 0.1% solution of sulforhodamine B (Sigma-Aldrich, Germany) in 1% acetic acid (POCh, Poland) were added to each well and were incubated at room temperature for 0.5 h. After incubation time, unbound dye was removed by washing plates four times with 1% acetic acid, whereas the stain bound to cells was solubilized with 150 μL of 10 mM Tris base (Sigma-Aldrich, Germany). Absorbance of each solution was read from a Synergy H4 Hybrid Multi-Mode Microplate Reader (BioTek Instruments, USA) at the 540 nm wavelength.

The test system of the next assay is MCF-7. Nature of the assay: In vitro antiproliferative activity, SRB assay, MCF-7. It counts as cell-based, human. The settings on record: for IC50: human breast adenocarcinoma, 72 h, SRB, mean ± SD; for selectivity index (SI) MCF-7: SI = (IC50 BALB/3T3)/(IC50 MCF-7). The protocol:
as §1, §2, §3, §4

For the next assay, the system named is LoVo. In words: In vitro antiproliferative activity, SRB assay, LoVo. In kind it is cell-based, human. The settings on record: for IC50: 72 h, human colon adenocarcinoma, SRB, mean ± SD; for selectivity index (SI) LoVo: SI = (IC50 BALB/3T3)/(IC50 LoVo). The protocol:
as §1, §2, §3, §4
On the technique in general: In SRB staining, fixed cells bind dye roughly in proportion to their protein.

For a further assay, the system named is LoVo/DX. Nature of the assay: cells. In kind it is cell-based, human. The settings on record: for IC50: Homo sapiens, LoVo/DX, 72 h, read-out: IC50 LoVo/DX; for RI (resistance index): RI = (IC50 for LoVo/DX)/(IC50 for LoVo). As to the method:
as §1, §2, §3, §4

A further assay deals with BALB/3T3. Nature of the assay: In vitro antiproliferative activity, SRB assay, normal fibroblasts BALB/3T3. It counts as cell-based, murine. The settings on record: for IC50: Mus musculus, BALB/3T3, normal murine embryonic fibroblasts, 72 h, SRB, mean ± SD. As to the method:
as §1, §2, §3, §4

In the case of `CNc1ccc2c(cc1=O)[C@@H](NC(=O)c1cccc(F)c1)CCc1cc(OC)c(OC)c(OC)c1-2` [Compound 14], the IC50 in the assay on A549 (Homo sapiens, A549, 72 h) is 10.7 ± 0.6 nM; in the assay on MCF-7 (Homo sapiens, MCF7, 72 h) it was 12.6 ± 1.3 nM; in the assay with LoVo (Homo sapiens, LoVo) it was 8.6 ± 0.8 nM; in the assay on LoVo/DX, 102 ± 24.9 nM; in the assay with BALB/3T3, 12.6 ± 2.1 nM. Moreover, in the assay on LoVo/DX, the “RI (resistance index)” value came to 12.0.
In the case of `CNc1ccc2c(cc1=O)C(NC(=O)CCC(F)(F)F)CCc1cc(OC)c(OC)c(OC)c1-2` (stereo not drawn) [Compound 11, 4,4,4-trifluorobutyric amide of 10-N-methylaminocolchicine], the IC50 in the assay on A549 (Homo sapiens, A549, 72 h) is 10.4 to 14.6 nM; in the assay on A549, 14.6 ± 2.1 nM; in the assay on MCF-7 (Homo sapiens, MCF7, 72 h), 10.4 to 14.6 nM; in the assay with MCF-7 it was 12.7 ± 0.4 nM; in the assay on LoVo (Homo sapiens, LoVo), 10.4 to 14.6 nM; in the assay on LoVo it was 10.4 ± 1.3 nM. For the same compound, the IC50 was 290 ± 165 nM with LoVo/DX and 81.3 ± 20.4 nM with BALB/3T3. In the assay with A549 (SI = (IC50 BALB/3T3)/(IC50 A549)), the “selectivity index (SI) A549” value was “higher than 5”. Further, the “selectivity index (SI) MCF-7” value with MCF-7 is given as “higher than 5”. The “selectivity index (SI) LoVo” value in the assay with LoVo is “higher than 5”. Besides, in the assay on LoVo/DX, the “RI (resistance index)” value was determined as 27.8. Moreover, in the assay on BALB/3T3 (SI = (IC50 BALB/3T3)/(IC50 respective cancerous cell line), range over several lines), the “selectivity index (SI), cancer cell lines not named at the place” value is 5.6–7.8.
`CNc1ccc2c(cc1=O)C(NS(N)(=O)=O)CCc1cc(OC)c(OC)c(OC)c1-2` (stereo not drawn) [Compound 17]: the IC50 amounted to 56.6 ± 14.7 nM in the assay on A549 (Homo sapiens, A549, 72 h); 10.3 ± 3.9 nM in the assay with MCF-7 (Homo sapiens, MCF7, 72 h); 21.1 ± 17.5 nM in the assay on LoVo (Homo sapiens, LoVo); 6470 ± 264 nM with LoVo/DX; 100 ± 24.1 nM in the assay with BALB/3T3. For the same compound, in the assay on MCF-7, the “selectivity index (SI) MCF-7” value is ~10 and 9.8. Further, the “RI (resistance index)” value in the assay with LoVo/DX is recorded as 306.0.
`CNc1ccc2c(cc1=O)C(NC(=O)CCl)CCc1cc(OC)c(OC)c(OC)c1-2` (stereo not drawn) [Compound 9]: the IC50 stood at 11.6 ± 2.8 nM in the assay on A549 (Homo sapiens, A549, 72 h); 9.2 ± 1.4 nM in the assay with MCF-7 (Homo sapiens, MCF7, 72 h); 1.8 ± 0.4 nM in the assay with LoVo (Homo sapiens, LoVo); 62.4 ± 6.7 nM with LoVo/DX; 11.6 ± 2.3 nM with BALB/3T3. Moreover, the “selectivity index (SI) LoVo” value with LoVo was “over 6”. In the assay on LoVo/DX, the “RI (resistance index)” value was determined as 35.2.
